{"source": "patent US20150150842A1", "about": "“DESETHYLAMIODARONE COMPOSITIONS” (priority 2012, published 2015)", "key": {"[1]": {"tested_on": "dog atrial and ventricular tissue", "experiment": "Atrial and ventricular action potential parameters after chronic oral treatment of non-instrumented dogs", "type": "in vivo, Beagle dogs", "details": "500 ms cycle length, 4-week oral DEA 30 or AMIO 45 mg/kg/day"}, "[2]": {"experiment": "Cardiac, liver and lung tissue DEA and AMIO levels in dogs with atrial fibrillation and structural atrial remodelling", "details": "for concentration at 4 weeks: both, Beagle, dog, oral, 50 mg/kg/day", "experimental": "(§1) The body weight of animals was monitored for strict adherence to the desired dose.\n(§2) The right atrial effective refractory period (ERP) was measured using the S1 -S2 protocol at cycle lengths of 150 and 300 ms. In addition ERP monitoring, 10-second long burst stimuli were applied at 800/min frequency to induce atrial fibrillation and the incidence of AF, the duration of AF episodes were measured before commencement of oral drug therapy and then after the initiation of therapy every 4 days.\nCardiac tissue drug levels were measured in right atrial, left atrial, right ventricular and left ventricular tissue samples. Following the sacrifice of the animals (the subsequent day after the 4-week treatment), tissue samples were taken before tissue preparations were isolated for in vitro studies."}, "[3]": {"tested_on": "conscious dogs with structural atrial remodelling", "experiment": "Chronic rapid atrial pacing induced atrial remodelling and burst-induced atrial fibrillation in conscious dogs", "experimental": "The experiments were performed on chronically instrumented Beagle dogs of both sexes, weighing 12-13 kg. The animals were subjected to the following surgery under general anaesthesia: pacemakers were implanted into bilateral subcutaneous pockets in the neck area (Logos, Karios; Biotronik Hungaria Ltd.) and were attached to pacemaker electrodes implanted into the right ventricle and right atrium. Radiofrequency catheter ablation was performed in each animal to achieve third degree atrioventricular (AV) block so that during subsequent rapid atrial pacing (400/min) the ventricles are protected from high heart rates. […] On the seventh day after surgery, following the measurement of right atrial effective refractory period the atrial pacemaker was set to a frequency of 400/min to achieve atrial electrical and structural remodelling. Right atrial rapid pacing is necessary to maintain for 3 months in this model to obtain complete remodeling of the atria signalled by the reduction of right atrial effective refractory period below 80 ms.\nas §1, §2"}, "rats": {"tested_on": "rats", "experiment": "Chronic 28-day non-GLP toxicology in rats"}, "[4]": {"experiment": "Plasma and tissue DEA and AMIO levels in non-instrumented dogs", "details": "4-week oral AMIO 45 mg/kg/day, individual dogs 1 and 2"}, "conscious rats": {"tested_on": "conscious rats", "experimental": "The present experiments were performed on male, Sprague-Dawley CFY rats weighing 260-300 g. During a preliminary open-chest surgery we applied a loose silk loop around the left main coronary artery, and then the chest was closed (Leprán et al., 1983). Seven-eight days after the preliminary surgery—after complete recovery and healing—the loose silk loop was tightened to occlude the coronary artery in conscious, freely moving animals. During the first 15 min of myocardial infarction a bipolar ECG was recorded continuously (PowerLab 8SP, ADInstruments, Great Britain).\nWe followed the survival rate during the acute phase (first 15 min) and during the subsequent 16 hours after coronary artery occlusion. The incidence and duration of arrhythmias in the acute phase were evaluated according to the Lambeth Conventions (Walker et al., 1988), i.e. ventricular fibrillation, ventricular tachycardia, and other types of arrhythmias, including ventricular extrasystoles, bigeminy, and salvos. The size of myocardial infarction was measured in the animals surviving for 16 hours after coronary artery occlusion using nitrotetrazolium-blue dye staining.\nLong-term oral pretreatment was applied for 1 month before the coronary artery occlusion. […] Control animals were given the vehicle in a volume of 5 ml/kg."}, "[5]": {"details": "dogs with AF, 4-week oral AMIO 50 mg/kg/day"}, "[6]": {"details": "dogs with structural atrial remodelling, 4-week oral AMIO 50 mg/kg/day"}}, "note": "“And” between values parts separate entries of the source, which are not always exact repeats. Equal values may be shown once."}
{"compound": "CCCCc1oc2ccccc2c1C(=O)c1cc(I)c(OCCN(CC)CC)c(I)c1", "note": "[AMIO, amiodarone]", "values": [{"measurement": "Vmax (V/s), Dog atrium", "setting": "[1]; n = 3, CONTROL 249.7 ± 52.7", "value": "252.9 ± 56.7", "unit": "V/s"}, {"measurement": "APD90 (ms), Dog atrium", "setting": "[1]; n = 4, CONTROL 123.9 ± 9.6", "value": "140.8 ± 12.4", "unit": "ms"}, {"measurement": "Liver and lung tissue concentrations of DEA in chronic AMIO treated dogs compared to chronic DEA treated dogs", "setting": "[2]; AF model dogs, oral AMIO 50 mg/kg/day vs DEA 25 mg/kg/day", "value": "more than three times higher"}, {"measurement": "concentration at 4 weeks", "setting": "[2]; left atrium, Left atrium AMIO level, Mean, dogs with AF, 4-week oral AMIO 50 mg/kg/day, n=3", "value": 35200, "unit": "ng/g"}, {"measurement": "concentration at 4 weeks", "setting": "[2]; left atrium, Left atrium AMIO level, individual animals, dogs with AF, 4-week oral AMIO 50 mg/kg/day", "value": 32600, "unit": "ng/g"}, {"measurement": "concentration at 4 weeks", "setting": "[2]; left ventricle, Left ventricle AMIO level, Mean, dogs with AF, 4-week oral AMIO 50 mg/kg/day, n=3", "value": 34400, "unit": "ng/g"}, {"measurement": "concentration at 4 weeks", "setting": "[2]; left ventricle, Left ventricle AMIO level, individual animals, dogs with AF, 4-week oral AMIO 50 mg/kg/day", "value": 36600, "unit": "ng/g"}, {"measurement": "concentration at 4 weeks", "setting": "[2]; right atrium, Right atrium AMIO level, Mean, dogs with AF, 4-week oral AMIO 50 mg/kg/day, n=3", "value": 24600, "unit": "ng/g"}, {"measurement": "concentration at 4 weeks", "setting": "[2]; right ventricle, Right ventricle AMIO level, Mean, dogs with AF, 4-week oral AMIO 50 mg/kg/day, n=3", "value": 34700, "unit": "ng/g"}, {"measurement": "concentration at 4 weeks", "setting": "[2]; right ventricle, Right ventricle AMIO level, individual animals, dogs with AF, 4-week oral AMIO 50 mg/kg/day", "value": 40800, "unit": "ng/g"}, {"measurement": "Left atrium AMIO level, individual animals", "setting": "[2]; [5]", "value": "39.045 μg/tissue g and 33.89 μg/tissue g"}, {"measurement": "Left ventricle AMIO level, individual animals", "setting": "[2]; [5]", "value": "42.573 μg/tissue g and 24.061 μg/tissue g"}, {"measurement": "Right atrium AMIO level, individual animals", "setting": "[2]; [5]", "value": "47.005 μg/tissue g and 19.936 μg/tissue g and 6.933 μg/tissue g"}, {"measurement": "Right ventricle AMIO level, individual animals", "setting": "[2]; [5]", "value": "37.033 μg/tissue g and 26.349 μg/tissue g"}, {"measurement": "Liver AMIO level, Mean ± SE", "setting": "[2]; [6]", "value": "126.8 ± 41.58", "unit": "μg/tissue g"}, {"measurement": "Liver AMIO level, individual animals", "setting": "[2]; [6]", "value": "123.961 μg/tissue g and 200.27 μg/tissue g and 56.314 μg/tissue g"}, {"measurement": "Lung AMIO level, Mean ± SE", "setting": "[2]; [6]", "value": "215.1 ± 60.12", "unit": "μg/tissue g"}, {"measurement": "Lung AMIO level, individual animals", "setting": "[2]; [6]", "value": "312.24 μg/tissue g and 227.793 μg/tissue g and 105.152 μg/tissue g"}, {"measurement": "Mood, behaviour, appetite and body weight", "setting": "[3]; dogs, 4-week oral, DEA 25, AMIO 50 mg/kg/day", "value": "loss of appetite followed by a reduction in body weight"}, {"measurement": "Lg AF duration, Following 4-week treatment, individual animals", "setting": "[3]; oral AMIO 50 mg/kg/day, Control (before) 2.59, 3.12, 4.35", "value": "1.35 and 0.88 and 0.12"}, {"measurement": "AF duration (s), Following 4-week treatment, individual animals", "setting": "[3]; oral AMIO 50 mg/kg/day, Control (before) 386.5, 1 302.9, 2 2663.7", "value": "22.5 s and 7.5 s and 1.31 s"}, {"measurement": "ERP, Following 4-week treatment, individual animals", "setting": "[3]; oral AMIO 50 mg/kg/day, animals 2011/01, 2011/08, 2011/9, Control (before) 90, <80, 80", "value": "100 ms (2×) and 130 ms"}, {"measurement": "Incidence of AF, Following 4-week treatment, individual animals", "setting": "[3]; oral AMIO 50 mg/kg/day, burst-induced AF, Control (before) 100%, 90%, 67%", "value": "40% and 10% (2×)"}, {"measurement": "Lg AF duration, Following 4-week treatment, Mean ± SE", "setting": "[3]; oral AMIO 50 mg/kg/day, n=3, Control (before) 3.35 ± 0.52", "value": "0.78 ± 0.36"}, {"measurement": "Incidence of AF, Following 4-week treatment, Mean ± SE", "setting": "[3]; oral AMIO 50 mg/kg/day, n=3, Control (before) 88.0 ± 10.54", "value": "20.0 ± 10.0", "unit": "%"}, {"measurement": "AF duration (s), Following 4-week treatment, Mean ± SE", "setting": "[3]; oral AMIO 50 mg/kg/day, n=3, Control (before) 8117.7 ± 7277.8", "value": "10.4 ± 6.29", "unit": "s"}, {"measurement": "Incidence and duration of atrial fibrillation", "setting": "[3]; three animals, 4-week oral treatment, DEA 25, AMIO 50 mg/kg/day, accompanied by prolongation of the ERP", "value": "showed a decreasing tendency"}, {"measurement": "Hepatic function alterations (total cholesterol, alkaline phosphatase [ALP])", "setting": "rats; 28-day oral AMIO 200 mg/kg/day compared to DEA 100 mg/kg/day", "value": "more robust"}, {"measurement": "Alveolar histiocytosis in the lungs", "setting": "rats; 28-day oral AMIO 200 mg/kg/day or DEA 100 mg/kg/day", "value": "alveolar histiocytosis was detected"}, {"measurement": "Detection of the administered drug 14 days after the completion of administration", "setting": "rats; 28-day oral AMIO 200 mg/kg/day or DEA 100 mg/kg/day, plasma (DEA: plasma or cardiac tissue)", "value": "could be detected in plasma samples"}, {"measurement": "Increase in body weight following 28-day treatment", "setting": "rats; AMIO 200 mg/kg/day or DEA 100 mg/kg/day, normal increase 44 g", "value": 13, "unit": "g"}, {"measurement": "Food consumption and appetite", "setting": "rats; first 3 weeks of 200 mg/kg/day AMIO, compared to control and 100 mg/kg/day DEA treated animals", "value": "reduced"}, {"measurement": "Kidney AMIO level", "setting": "[4]", "value": 112.173, "unit": "μg/tissue g"}, {"measurement": "Left Ventricle AMIO level", "setting": "[4]", "value": 81.928, "unit": "μg/tissue g"}, {"measurement": "Liver AMIO level", "setting": "[4]", "value": 177.317, "unit": "μg/tissue g"}, {"measurement": "Lung AMIO level", "setting": "[4]", "value": 178.360, "unit": "μg/tissue g"}, {"measurement": "Right Atrium AMIO level", "setting": "[4]", "value": "75.854 μg/tissue g and 152.023 μg/tissue g"}, {"measurement": "Death due to the 1 month treatment", "setting": "conscious rats; 1 month oral pretreatment", "value": "No death occurred"}, {"measurement": "Survival rate during the acute phase of experimental myocardial infarction", "setting": "conscious rats; 1 month oral pretreatment", "value": "significantly improved"}, {"measurement": "Behavioral changes, body weight increments", "setting": "conscious rats; 1 month oral pretreatment, AMIO 30 or 100, DEA 15 or 50 mg/kg/day", "value": "Neither AMIO nor DEA produced any behavioral changes of the animals, or in body weight increments"}, {"measurement": "Arrhythmia score", "setting": "conscious rats; first 15 min after coronary artery occlusion, 1 month oral AMIO 100 or DEA 50 mg/kg/day, control 4.77±0.33", "value": "2.05±0.52"}, {"measurement": "Incidence of ventricular fibrillation", "setting": "conscious rats; larger doses (AMIO 100, DEA 50 mg/kg/day), after coronary artery occlusion", "value": "significantly decreased"}]}
